Test results taken from US20260109707A1, “HETEROBIFUNCTIONAL COMPOUNDS AND METHODS OF TREATING DISEASE” (Halda Therapeutics OpCo. Inc., priority 2022, published 2026).

Key:
[1] = system: T-Rex 293 cell line SC3 cells lacking increased expression of androgen receptor protein; assay: Cellular growth inhibition assay, T-Rex 293 SC3 cells without doxycycline (CellTiter-Glo, 72 hours); format: cell-based; details: 72 h, T-Rex 293 cell line SC3 cells not exposed to doxycycline (lacking increased androgen receptor expression)
In short: (§1)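 Doxycycline (10 ng/mL) was either included or omitted to toggle wild-type androgen receptor expression in SC3 cells, a T-Rex 293 clone, grown in stripped-serum, phenol red-free medium. After 72 hours with compound, viable cells were quantified by CellTiter-Glo 2.0.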

BRD4-BD1 = molecular target: T1, BRD4-BD1 (Homo sapiens, UniProt O60885); assay: bromoKdELECT assay for binding affinity to BRD4-BD1; details: binding to BRD4-BD1, Table 4
T1 construct: made in house; host or cells: T7 phage grown in an E. coli host derived from the BL21 strain
Protocol: Compounds were tested using a bromoKdELECT assay. T7 phage strains displaying bromodomains were grown in parallel in 24-well blocks in an E. coli host derived from the BL21 strain. E. coli were grown to log-phase and infected with T7 phage from a frozen stock (multiplicity of infection=0.4) and incubated with shaking at 32° C. until lysis (90-150 minutes). The lysates were centrifuged (5,000×g) and filtered (0.2 μm) to remove cell debris. Streptavidin-coated magnetic beads were treated with biotinylated small molecule or acetylated peptide ligands for 30 minutes at room temperature to generate affinity resins for bromodomain assays. The liganded beads were blocked with excess biotin and washed with blocking buffer (SeaBlock (Pierce), 1% BSA, 0.05% Tween 20, 1 mM DTT) to remove unbound ligand and to reduce nonspecific phage binding. Binding reactions were assembled by combining bromodomains, liganded affinity beads, and test compounds in 1× binding buffer (17% SeaBlock, 0.33×PBS, 0.04% Tween 20, 0.02% BSA, 0.004% Sodium azide, 7.4 mM DTT). Test compounds were prepared as 1000× stocks in 100% DMSO. Kds were determined using an 11-point 3-fold compound dilution series with one DMSO control point. All compounds for Kd measurements are distributed by acoustic transfer (non-contact dispensing) in 100% DMSO. The compounds were then diluted directly into the assays such that the final concentration of DMSO was 0.09%. All reactions performed in polypropylene 384-well plates. Each was a final volume of 0.02 ml. The assay plates were incubated at room temperature with shaking for 1 hour and the affinity beads were washed with wash buffer (1×PBS, 0.05% Tween 20). The beads were then resuspended in elution buffer (1×PBS, 0.05% Tween […] non-biotinylated affinity ligand) and incubated at room temperature with shaking for 30 minutes. The bromodomain concentration in the eluates was measured by qPCR.

[2] = system: T-Rex 293 cell line SC3 cells having increased expression of androgen receptor protein due to exposure to doxycycline; assay: Cellular growth inhibition assay, T-Rex 293 SC3 cells with doxycycline (CellTiter-Glo, 72 hours); format: cell-based; details: 72 h, T-Rex 293 SC3 cells with increased androgen receptor expression due to doxycycline (10 ng/mL)
In short: as §1

VCaP cells = assay: Cellular growth inhibition assay for VCaP cells (CellTiter-Glo, 72 hours); format: cell-based, human; details: Homo sapiens, VCaP, 72 h
In short: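 Luminescent viability signal after 72 h of compound exposure gave GI50 values by four-parameter nonlinear regression. Compounds were added in 0.5% DMSO to cells plated 24 h earlier at 5000/well in DMEM containing 10% FBS.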

androgen receptor = molecular target: T2, androgen receptor (Homo sapiens, UniProt P10275); assay: Assay for binding affinity to androgen receptor ([3H]methyltrienolone radioligand, cell cytosol); details: binding to the androgen receptor, Table 3
T2 sequence (P10275 1-920 T878A): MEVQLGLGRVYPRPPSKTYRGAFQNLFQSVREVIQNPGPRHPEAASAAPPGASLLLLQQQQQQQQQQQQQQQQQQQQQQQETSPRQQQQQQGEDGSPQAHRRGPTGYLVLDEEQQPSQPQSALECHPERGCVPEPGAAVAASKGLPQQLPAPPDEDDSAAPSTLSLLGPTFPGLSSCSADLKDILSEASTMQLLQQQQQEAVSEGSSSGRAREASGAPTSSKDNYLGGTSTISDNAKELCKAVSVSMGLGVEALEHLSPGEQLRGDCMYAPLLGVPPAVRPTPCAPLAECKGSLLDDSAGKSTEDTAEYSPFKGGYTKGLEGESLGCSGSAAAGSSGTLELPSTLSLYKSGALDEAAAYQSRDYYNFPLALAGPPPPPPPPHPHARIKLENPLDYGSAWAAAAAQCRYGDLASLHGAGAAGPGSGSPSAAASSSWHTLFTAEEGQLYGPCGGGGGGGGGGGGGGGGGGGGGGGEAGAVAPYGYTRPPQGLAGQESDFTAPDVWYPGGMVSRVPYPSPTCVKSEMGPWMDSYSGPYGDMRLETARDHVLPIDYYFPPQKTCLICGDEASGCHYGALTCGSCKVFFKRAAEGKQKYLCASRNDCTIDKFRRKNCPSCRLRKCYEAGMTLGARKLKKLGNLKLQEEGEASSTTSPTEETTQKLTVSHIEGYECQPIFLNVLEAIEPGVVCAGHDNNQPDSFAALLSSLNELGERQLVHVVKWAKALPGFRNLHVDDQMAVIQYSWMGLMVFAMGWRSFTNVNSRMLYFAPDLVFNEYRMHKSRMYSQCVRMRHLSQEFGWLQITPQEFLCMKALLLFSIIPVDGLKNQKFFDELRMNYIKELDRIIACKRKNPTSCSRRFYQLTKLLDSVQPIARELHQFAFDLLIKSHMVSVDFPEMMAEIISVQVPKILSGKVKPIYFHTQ
Protocol: Fractions of cell cytosol ([…]) were incubated for 24 hr at 4° C. with 1 nM [^3H]methyltrienolone in the absence or presence of the test compound in a buffer containing 25 mM Hepes-Tris (pH 7.4), 1 mM EDTA, 10 mM Na2MoO4, 2 mM DTT, 5 μM triamcinolone acetonide, and 10% glycerol. Nonspecific binding was determined in the presence of […] testosterone. Following incubation, the samples were filtered rapidly under vacuum through glass fiber filters (GF/B, Packard) presoaked with 0.3% PEI and rinsed several times with ice-cold 50 mM Tris-HCl using a 96-sample cell harvester (Unifilter, Packard). The filters were dried then counted for radioactivity in a scintillation counter (Topcount, Packard) using a scintillation cocktail (Microscint 0, Packard). The results are expressed as a percent inhibition of the control radioligand specific binding. The standard reference compound is testosterone, which is tested in each experiment at several concentrations to obtain a competition curve from which its IC50 is calculated.

T47D cells = assay: Cellular growth inhibition assay for T47D cells (CellTiter-Glo, 72 hours); format: cell-based, human; details: Homo sapiens, T47D, 72 h, 72 hours treatment
In short: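 Growth inhibition as GI50, fitted with four parameters to CellTiter-Glo luminescence after 72 h of compound exposure (0.5% DMSO). Cells were T47D, grown in insulin-supplemented (0.2 units/mL) DMEM with 10% FBS and treated one day post-seeding.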

[3] = Cellular growth inhibition assay, T-Rex 293 SC cells with doxycycline (CellTiter-Glo, 72 hours); format: cell-based; details: T-Rex 293 SC cells with doxycycline (increased progesterone receptor isoform B)
Protocol: (§2) The following types of cells were prepared for this experiment: (i) a T-Rex 293 cell line having increased expression of progesterone receptor isoform B protein due to exposure to doxycycline and (ii) a T-Rex 293 cell line lacking increased expression of progesterone receptor isoform B protein. Ability of the test compounds to inhibit proliferation of the foregoing cell types was evaluated according to the procedures set forth below.
(§3) The doxycycline-inducible progesterone receptor isoform B protein expressing cell line was established using the following protocol: T-Rex 293 cells were purchased from Invitrogen (Cat #R71007) and transfected using Lipofectamine 2000 with the wild-type progesterone receptor B protein sequence cloned into the pcDNA4/TO vector. Transfected cells were selected using 400 μg/mL Zeocin (Invitrogen Cat #R25001). Following selection, single clones were raised and maintained in Dulbecco's Modified Eagle Medium (DMEM) supplemented with 10% w/w Tetracycline-free fetal bovine serum (FBS) and 250 μg/mL Zeocin. Clones were analyzed for expression of progesterone receptor isoform B protein in the presence and absence of 10 ng/mL doxycycline (Sigma Cat #D9891), and a single doxycycline-inducible clone (hereinafter “SC”) was selected for use in downstream assays.
(§4) The SC cells were seeded on poly-D-lysine coated, black clear-bottom 384-well plates at 2500/well, in 25 μL Phenol Red Free Dulbecco's Modified Eagle Medium (DMEM) supplemented with 10% w/w charcoal-dextran treated fetal bovine serum (FBS) and 1% w/w pen-strep, with or without 10 ng/mL doxycycline. Pen-Strep is a commercially available mixture of penicillin G and streptomycin, which is used in mammalian cell culture media to prevent bacterial contamination. Phenol Red Free Dulbecco's Modified Eagle Medium (DMEM) supplemented with 10% w/w charcoal-dextran treated fetal bovine serum (FBS) and 1% w/w pen-strep, with or without 10 ng/mL doxycycline is herein referred to as Treatment Medium. Following seeding of cells in the plates, the plates were spun at 300×g for 30 seconds, then equilibrated to room temperature for 30 minutes, and then deposited in a humidified tissue culture incubator maintained at 37° C. with 5% CO2.
(§5) At 24 hours after seeding of the cells, dilutions of test compound were prepared in DMSO and dissolved in Treatment Medium, to achieve a final DMSO concentration of 0.5% w/w, thereby providing the Test Compound Solution. A 25 μL aliquot of the Test Compound Solution was added to cells in the well plates. An equal volume of a solution containing DMSO and Treatment Medium was used as a negative control. Following treatment of cells with Test Compound Solution or said equal volume of a solution containing DMSO and Treatment Medium, the plates were spun at 300×g for 30 seconds, and then left in an incubator for 72 hours.
(§6) At the end of the treatment duration, cell viability was quantified with CellTiter-Glo 2.0 reagent (Promega Cat #G9243). For this purpose, plates were equilibrated to room temperature for 30 minutes, and then 25 μL of CellTiter-Glo 2.0 reagent was added to cells in the plate wells. Plates were then agitated on a shaker for two minutes at 500 rpm and subsequently incubated at room temperature for 10 minutes. Following incubation, the plates were spun at 3000×g for 30 seconds, then sealed with an optical adhesive cover, and luminescence readings were measured with an EnVision Plate Reader (Perkin Elmer).
(§7) Data was normalized using zero luminescence for baseline. A four-parameter non-linear regression curve fit was applied to dose-response data in GraphPad Prism data analysis software to determine the half-maximal growth inhibitory concentration (GI50) for each test compound.

[4] = system: T-Rex 293 cell line SC cells lacking increased expression of progesterone receptor isoform B protein; assay: Cellular growth inhibition assay, T-Rex 293 SC cells without doxycycline (CellTiter-Glo, 72 hours); format: cell-based; details: T-Rex 293 SC cells not exposed to doxycycline
Protocol: as §2, §3, §4, §5, §6, §7

| SMILES | Kd (BRD4-BD1) | GI50 (VCaP cells) | Kd (androgen receptor) | GI50 (T47D cells) | GI50 [1] | GI50 [2] | GI50 [3] | GI50 [4] |
| --- | --- | --- | --- | --- | --- | --- | --- | --- |
| Cc1sc2c(c1C)C(c1ccc(Cl)cc1)=N[C@@H](CC(=O)NCCOCCOCCOCCOCCOC1CCN(c3ccc(C(=O)N[C@H]4CC[C@H](Oc5ccc(C#N)c(Cl)c5)CC4)nn3)CC1)c1nnc(C)n1-2 [I-3, N-[4-(3-chloro-4-cyano-phenoxy)cyclohexyl]-6-[4-[2-[2-[2-[2-[2-[[2-[7-(4-chlorophenyl)-4,5,13-trimethyl-3-thia-1,8,11,12-tetrazatricyclo[8.3.0.0^2,6]trideca-2(6),4,7,10,12-pentaen-9-yl]acetyl]amino]ethoxy]ethoxy]ethoxy]ethoxy]ethoxy]-1-piperidyl]pyridazine-3-carboxamide] | < 50 nM | < 500 nM |  |  | 1500 to 3000 nM | < 500 nM |  |  |
| CCNC(=O)C[C@@H]1N=C(c2ccc(OCCOCCOCCOC3CCN(c4ccc(C(=O)N[C@H]5CC[C@H](Oc6ccc(C#N)c(Cl)c6)CC5)nn4)CC3)cc2)c2c(sc(C)c2C)-n2c(C)nnc21 [I-9] |  | < 500 nM | < 50 nM |  | 500 to 1500 nM | < 500 nM |  |  |
| Cc1sc2c(c1C)C(c1ccc(CCC3CC4(CCCN(c5ccc(C(=O)N[C@H]6CC[C@H](Oc7ccc(C#N)c(Cl)c7)CC6)nn5)C4)C3)cc1)=N[C@@H](Cc1ncco1)c1nnc(C)n1-2 (stereo partly shown) [I-208] |  | < 500 nM |  | < 500 nM | < 500 nM | < 500 nM | < 500 nM | < 500 nM |

Second part, led by results:

| Kd (BRD4-BD1) | GI50 (VCaP cells) | Kd (androgen receptor) | GI50 (T47D cells) | SMILES | GI50 [1] | GI50 [2] | GI50 [3] | GI50 [4] |
| --- | --- | --- | --- | --- | --- | --- | --- | --- |
|  | < 500 nM | < 50 nM |  | CCNC(=O)C[C@@H]1N=C(c2ccc(N3CCC(N(C)C4CN(c5ccc(C(=O)N[C@H]6CC[C@H](Oc7ccc(C#N)c(Cl)c7)CC6)nn5)C4)CC3)cc2)c2c(sc(C)c2C)-n2c(C)nnc21 [I-63] | 500 to 1500 nM | < 500 nM |  |  |
|  | 500 to 1500 nM | 50 to 500 nM |  | CCNC(=O)C[C@@H]1N=C(c2ccc(N3CCC(CN4CC(N(C)c5ccc(C(=O)N[C@H]6CC[C@H](Oc7ccc(C#N)c(Cl)c7)CC6)nn5)C4)CC3)cc2)c2c(sc(C)c2C)-n2c(C)nnc21 [I-68] | > 3000 nM | > 3000 nM |  |  |
